This note sets out measurements from ChEMBL document CHEMBL1201862, “PubChem BioAssay data set” (2004).

Structures are written as SMILES.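 1) Cells in 96-well plates. 2) Compound, 48 h, 5 concentrations. 3) Linear interpolation between surrounding doses. 4) Unreached endpoint = highest concentration. GI50 is the concentration that inhibits growth by half.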 Active and inactive are the calls of the source. Cut-off read from the data, not from the text of the source: active = GI50 up to about 1.1 µM and inactive = higher.

Test systems include SK-MEL-5; TK-10; EKVX; K562; PC-3; DU-145; OVCAR-5; M19-MEL; KM12; SK-MEL-2; LOX IMVI; NCI-H226; Malme-3M; A549; M14; SK-OV-3; SK-MEL-28; SW-620; MCF7; NCI/ADR-RES.
What all share (assay): growth of human tumour cells (NCI), 48 h

Take `O=CN/C=C/c1ccccc1`: the GI50 with SK-MEL-5 is > 100 µM (inactive); with TK-10 it was > 100 µM (inactive); in the test with EKVX it was > 100 µM (inactive); in the test with K562 it was > 31.6 µM (inactive); in the test with PC-3, > 100 µM (inactive); in the test with DU-145, > 100 µM (inactive). In addition, the GI50 in the test with OVCAR-5, in the test on M19-MEL, with KM12, with SK-MEL-2, with LOX IMVI and with NCI-H226 was > 100 µM (inactive) each time. Also, the GI50 in the test on Malme-3M is > 100 µM (inactive); with A549 it was > 100 µM (inactive); in the test on M14, > 100 µM (inactive); in the test with SK-OV-3 it was > 100 µM (inactive); in the test on SK-MEL-28, > 100 µM (inactive); with SW-620 it was > 51.2 µM (inactive).

Consider `CN(O)C(=S)c1ccccc1`, for which the GI50 in the test on SK-MEL-5 is 1.7 µM (inactive); in the test on TK-10, > 78.2 µM (inactive); in the test on EKVX, 15.5 µM (inactive); in the test with K562, 0.347 µM (active); in the test with PC-3 it was 3.23 µM (inactive); with DU-145 it was 41.2 µM (inactive). Moreover, the GI50 is 78.5 µM (inactive) in the test on OVCAR-5; 1.1 µM (active) in the test with MCF7; 1.19 µM (inactive) in the test with M19-MEL; 5.86 µM (inactive) with KM12; 5.07 µM (inactive) with SK-MEL-2; 1.57 µM (inactive) in the test on LOX IMVI. The GI50 in the test on NCI-H226 is 34.2 µM (inactive); in the test with Malme-3M it was 7.82 µM (inactive); in the test on NCI/ADR-RES, 0.746 µM (active); in the test with A549, 4.26 µM (inactive); in the test with M14, 3.98 µM (inactive); with SK-OV-3 it was 11.3 µM (inactive). In addition, the GI50 is 3.31 µM (inactive) in the test on SK-MEL-28 and 1.25 µM (inactive) with SW-620.
